Tests used:
[1] = target: T1, Polyunsaturated fatty acid 5-lipoxygenase (Rattus norvegicus) (UniProt P12527); experiment: The compound was tested for inhibition against 5-lipoxygenase in rat polymorphonuclear leukocytes[PMNS] at 10 uM concentration; format: cell-based
T1 sequence (whole entry): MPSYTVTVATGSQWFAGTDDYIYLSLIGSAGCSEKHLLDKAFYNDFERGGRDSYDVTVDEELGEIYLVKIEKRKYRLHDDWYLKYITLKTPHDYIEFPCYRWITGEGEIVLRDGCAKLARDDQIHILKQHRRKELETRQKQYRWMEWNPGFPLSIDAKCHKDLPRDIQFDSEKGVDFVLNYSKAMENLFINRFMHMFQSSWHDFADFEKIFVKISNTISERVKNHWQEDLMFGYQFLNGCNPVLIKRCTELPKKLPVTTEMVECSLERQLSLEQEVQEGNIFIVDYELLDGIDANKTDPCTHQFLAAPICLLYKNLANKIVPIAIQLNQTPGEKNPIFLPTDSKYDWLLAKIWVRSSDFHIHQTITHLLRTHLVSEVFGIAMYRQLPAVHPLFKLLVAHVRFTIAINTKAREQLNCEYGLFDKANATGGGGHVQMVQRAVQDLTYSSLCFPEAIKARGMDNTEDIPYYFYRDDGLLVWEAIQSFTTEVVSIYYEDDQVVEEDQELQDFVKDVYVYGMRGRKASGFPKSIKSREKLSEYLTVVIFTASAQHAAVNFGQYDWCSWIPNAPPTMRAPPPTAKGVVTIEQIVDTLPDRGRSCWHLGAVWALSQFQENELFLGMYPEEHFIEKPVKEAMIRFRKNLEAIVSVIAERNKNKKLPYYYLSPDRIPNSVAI

Cyclooxygenase [2] = target: T2, Cyclooxygenase (Rattus norvegicus, UniProt P35355+Q63921); experiment: The compound was tested for inhibitory activity against Prostaglandin G/H synthase in rat polymorphonuclear leukocytes[PMNS]; format: cell-based
T2 sequence (P35355 whole entry): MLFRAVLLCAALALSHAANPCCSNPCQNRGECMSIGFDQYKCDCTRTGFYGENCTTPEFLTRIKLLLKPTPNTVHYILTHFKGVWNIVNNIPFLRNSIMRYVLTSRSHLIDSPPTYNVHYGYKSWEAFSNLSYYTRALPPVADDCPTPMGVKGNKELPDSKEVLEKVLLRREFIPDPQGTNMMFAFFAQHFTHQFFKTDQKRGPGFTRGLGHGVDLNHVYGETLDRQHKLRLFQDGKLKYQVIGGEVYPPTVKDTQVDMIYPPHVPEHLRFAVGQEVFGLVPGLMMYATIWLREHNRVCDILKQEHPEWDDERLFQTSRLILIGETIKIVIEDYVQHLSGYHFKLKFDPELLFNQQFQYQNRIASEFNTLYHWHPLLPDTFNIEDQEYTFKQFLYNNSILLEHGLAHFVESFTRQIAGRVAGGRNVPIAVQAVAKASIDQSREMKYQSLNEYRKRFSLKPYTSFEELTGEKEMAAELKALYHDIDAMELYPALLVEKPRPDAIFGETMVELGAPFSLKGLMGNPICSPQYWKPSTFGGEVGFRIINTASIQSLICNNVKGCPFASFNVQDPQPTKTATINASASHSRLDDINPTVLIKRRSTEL
T2 sequence (Q63921 whole entry): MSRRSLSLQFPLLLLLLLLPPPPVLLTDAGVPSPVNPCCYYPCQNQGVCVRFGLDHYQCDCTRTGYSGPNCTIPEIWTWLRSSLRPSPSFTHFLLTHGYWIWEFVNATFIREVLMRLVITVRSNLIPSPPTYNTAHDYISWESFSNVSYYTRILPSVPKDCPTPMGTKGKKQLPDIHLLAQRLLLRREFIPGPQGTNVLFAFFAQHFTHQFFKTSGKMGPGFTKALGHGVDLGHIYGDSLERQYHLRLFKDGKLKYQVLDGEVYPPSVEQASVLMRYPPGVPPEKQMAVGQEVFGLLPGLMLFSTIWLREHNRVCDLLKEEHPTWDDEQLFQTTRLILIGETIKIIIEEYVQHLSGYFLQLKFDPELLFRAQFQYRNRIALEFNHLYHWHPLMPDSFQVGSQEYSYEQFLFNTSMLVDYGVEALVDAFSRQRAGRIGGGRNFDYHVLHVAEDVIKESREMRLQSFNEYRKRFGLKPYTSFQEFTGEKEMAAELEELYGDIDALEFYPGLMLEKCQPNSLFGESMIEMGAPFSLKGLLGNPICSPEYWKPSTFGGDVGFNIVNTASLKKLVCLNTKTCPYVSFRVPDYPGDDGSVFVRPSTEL

Cavia porcellus [3] = species on record: Cavia porcellus; experiment: The compound was tested for inhibitory activity against LTD4-induced contractions of guinea pig ileum; format: functional
[4] = target: T3, Polyunsaturated fatty acid 5-lipoxygenase (Rattus norvegicus, UniProt P12527); experiment: The compound was tested for inhibitory activity against 5-lipoxygenase in rat polymorphonuclear leukocytes[PMNS]; format: cell-based
T3 sequence (P12527 whole entry): T1 sequence (whole entry)

Cavia porcellus [5] = species on record: Cavia porcellus; experiment: The effective dose for inhibition of LTD4-induced contractions of guinea pig trachea; format: functional
Cyclooxygenase [6] = target: Cyclooxygenase (Homo sapiens, UniProt P35354+P23219); experiment: The compound was tested for inhibitory activity against Prostaglandin G/H synthase in human polymorphonuclear leukocytes[PMNS]; format: cell-based
[7] = target: T3, Polyunsaturated fatty acid 5-lipoxygenase; experiment: The compound was tested for inhibitory activity against 5-lipoxygenase using rat polymorphonuclear leukocytes[PMNS]
Cavia porcellus [8] = species on record: Cavia porcellus; experiment: The compound was tested for inhibition of LTD4-induced bronchoconstriction in guinea pig; format: functional
[9] = target: T3, Polyunsaturated fatty acid 5-lipoxygenase; experiment: The compound was tested for inhibitory activity against 5-Lipoxygenase in rat RBL-1; format: cell-based
[10] = target: T3, Polyunsaturated fatty acid 5-lipoxygenase; experiment: The compound was tested for inhibitory activity against 5-Lipoxygenase in rat polymorphonuclear leukocytes[PMNS]; format: cell-based
[11] = target: T4, Leukotriene C4 synthase (Rattus norvegicus) (UniProt Q925U2); experiment: The compound was tested for inhibition LTC4 synthase from whole cells in rat
T4 sequence (whole entry): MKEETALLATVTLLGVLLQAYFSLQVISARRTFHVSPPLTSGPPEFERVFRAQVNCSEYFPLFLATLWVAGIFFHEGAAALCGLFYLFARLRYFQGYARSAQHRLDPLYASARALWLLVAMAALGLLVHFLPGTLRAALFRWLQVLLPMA

[12] = target: T1, Polyunsaturated fatty acid 5-lipoxygenase (Rattus norvegicus); experiment: The compound was tested for inhibition of 5-lipoxygenase translocation in SAR in rat RBL-2H3 cells; format: functional, cell-based
[13] = target: T5, Polyunsaturated fatty acid 5-lipoxygenase (Homo sapiens, UniProt P09917); experiment: The compound was tested for inhibitory activity against LT synthesis in human polymorphonuclear leukocytes[PMNS]; format: cell-based
T5 sequence (P09917 whole entry): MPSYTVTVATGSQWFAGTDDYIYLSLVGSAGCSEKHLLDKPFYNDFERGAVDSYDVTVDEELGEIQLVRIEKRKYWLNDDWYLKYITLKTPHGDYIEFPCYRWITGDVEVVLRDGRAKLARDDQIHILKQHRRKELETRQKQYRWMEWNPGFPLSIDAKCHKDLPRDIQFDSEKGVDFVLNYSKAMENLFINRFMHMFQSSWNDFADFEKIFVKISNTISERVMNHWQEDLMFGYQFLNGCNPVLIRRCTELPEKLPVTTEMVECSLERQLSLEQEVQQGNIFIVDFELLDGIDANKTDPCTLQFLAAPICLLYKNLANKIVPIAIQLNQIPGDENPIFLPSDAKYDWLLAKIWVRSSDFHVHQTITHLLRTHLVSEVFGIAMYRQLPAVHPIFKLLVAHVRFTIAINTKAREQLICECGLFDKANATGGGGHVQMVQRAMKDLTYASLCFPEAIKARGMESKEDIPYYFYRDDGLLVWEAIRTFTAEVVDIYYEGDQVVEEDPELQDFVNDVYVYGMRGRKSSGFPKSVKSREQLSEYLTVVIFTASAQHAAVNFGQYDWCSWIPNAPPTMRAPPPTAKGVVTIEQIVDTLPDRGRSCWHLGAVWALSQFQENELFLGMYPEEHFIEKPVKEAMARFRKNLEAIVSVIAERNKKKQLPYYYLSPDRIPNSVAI

Homo sapiens [14] = species on record: Homo sapiens; experiment: The compound was tested for inhibitory activity against Leukotriene synthesis in human monocytes; format: functional
Homo sapiens [15] = species on record: Homo sapiens; experiment: The compound was tested for inhibitory activity against 5-Lipoxygenase in human polymorphonuclear leukocytes[PMNS]; format: functional
[16] = target: T1, Polyunsaturated fatty acid 5-lipoxygenase (Rattus norvegicus); experiment: The compound was tested for inhibition of isolated 5-lipoxygenase
[17] = target: T3, Polyunsaturated fatty acid 5-lipoxygenase; experiment: The compound was tested for inhibitory activity against 5-lipoxygenase translocation inhibitor in rat RBL-2H3 cells; format: functional, cell-based
[18] = target: T1, Polyunsaturated fatty acid 5-lipoxygenase (Rattus norvegicus); experiment: The compound was tested for inhibition against 5-Lipoxygenase in rat polymorphonuclear leukocytes at 10 uM concentration; format: cell-based
Cavia porcellus [19] = experiment: The compound was tested for inhibition of LTD4 response in guinea pig bronchoconstriction assay after intraduodenal administration (30 mg/kg)
Cavia porcellus [20] = species on record: Cavia porcellus; experiment: The compound was tested for binding affinity against guinea pig lung membrane using [3H]LTD4 as radioligand
[21] = target: Cyclooxygenase (Rattus norvegicus) (UniProt P35355+Q63921); experiment: The compound was tested for inhibition against Prostaglandin G/H synthase in rat polymorphonuclear leukocytes[PMNS] at 10 uM concentration; format: cell-based
[22] = target: T5, Polyunsaturated fatty acid 5-lipoxygenase
[23] = target: T1, Polyunsaturated fatty acid 5-lipoxygenase (Rattus norvegicus); experiment: The compound was tested for inhibition of isolated 5-Lipoxygenase
RBL-2H3 [24] = experiment: The compound was tested for inhibition of translocation in SAR in RBL-2H3 cells; format: functional, Rattus norvegicus
RBL-2H3 [25] = experiment: The compound was tested for inhibition LTC4 synthesis; format: functional, Rattus norvegicus
[26] = The compound was tested for inhibitory activity against Leukotriene B4 receptor in mouse mastocytoma
[27] = The effective dose for inhibition of anaphylactic death after oral administration; format: functional
[28] = Compound was tested for spasmogenic activity of LTE4 on lung strips; format: functional
[29] = Compound was tested for spasmogenic activity of LTD4 on lung strips; format: functional
Rattus norvegicus = species on record: Rattus norvegicus; experiment: The compound was tested for inhibition of [3H]LTD4 binding to lung membrane; format: functional
[30] = The effective dose for inhibition of LTD4-induced wheal formation after oral administration; format: functional
[31] = Compound was tested for spasmogenic activity of LTC4 on lung strips; format: functional

SMILES: O=C(O)CCc1nc(-c2ccc(OCc3ccc4ccccc4n3)cc2)c(-c2ccccc2)o1
- Inhibition [1]: 96%

SMILES: O=C(O)Cc1ccc(-c2ccc(OCc3ccc4ccccc4n3)cc2)c(F)c1
- Inhibition [1]: 100%

SMILES: O=C(O)c1ccccc1Nc1cccc(OCc2ccc3ccccc3n2)c1 [SR-2640]
- IC50 (Cyclooxygenase [2]): 2000 nM
- IC50 (Cavia porcellus [3]): 3 nM
- IC50 [4]: 10000 nM

SMILES: CCCCC[C@H](O)c1cccc(OCc2cccc(CC(=O)O)c2)c1
- IC50 [4]: 2500 nM

SMILES: CONC(=O)Cc1cccc(OCc2ccc3ccccc3n2)c1
- ED50 (Cavia porcellus [5]): 7.9 mg/kg

SMILES: CC(C)(C)CC(=O)c1c(CC(C)(C)C(=O)O)n(Cc2ccc(Cl)cc2)c2ccc(OCc3ccc4ccccc4n3)cc12
- IC50 (Cyclooxygenase [6]): 2 nM

SMILES: Oc1ccccc1OCc1ccc2ccccc2n1
- IC50 (Cyclooxygenase [2]): 5820 nM
- IC50 [7]: 53000 nM
- Inhibition (Cavia porcellus [8]): 28%

SMILES: c1cc(Cc2nnn[nH]2)cc(OCc2ccc3ccccc3n2)c1
- ED50 (Cavia porcellus [5]): 0.4 mg/kg
- IC50 (Cyclooxygenase [2]): 13400 nM
- IC50 [4]: 6200 nM

SMILES: CCCc1c(OCC(O)COc2cccc(NC(=O)C(=O)OCC)c2C#N)ccc(C(C)=O)c1O (stereo unspecified)
- IC50 [4]: 32000 nM

SMILES: COc1c(OC)c(OC(C)=O)c2cc(Cl)ccc2c1OC(C)=O [LONAPALENE]
- IC50 [9]: 500 nM

SMILES: Cc1ccc(S(=O)(=O)NC(=O)c2cccc(OCc3ccc4ccccc4n3)c2)cc1
- IC50 [10]: 3900 nM
- ED50 (Cavia porcellus [5]): 3 mg/kg

SMILES: CC(C)c1ccc2c(c1)c(SC(C)(C)C)c(CC(C)(C)C(=O)O)n2Cc1ccc(Cl)cc1
- Inhibition [11]: 3 nM
- Inhibition [12]: 35 nM
- IC50 [13]: 60 nM
- IC50 (Homo sapiens [14]): 50 nM
- IC50 (Homo sapiens [15]): 2.5 nM
- Inhibition [16]: > 20 µM
- IC50 [17]: 5 nM

SMILES: CCN(CC)C(=O)N(C)C[C@H](O)c1cccc(OCc2ccc3ccccc3n2)c1
- IC50 [4]: 2000 nM

SMILES: CC(C)(C)c1cc(-c2cn3ncc(=O)nc3s2)cc(C(C)(C)C)c1O
- IC50 (Cyclooxygenase [6]): 25000 nM

SMILES: CC(C(=O)O)c1ccc2c3cc(OCc4ccc5ccccc5n4)ccc3n(Cc3ccc4ccccc4n3)c2c1 (stereo unspecified)
- Inhibition [18]: 92%

SMILES: COc1ccc(-n2nc(CCC(=O)N(C)O)cc2-c2ccc(Cl)cc2)cc1 [TEPOXALIN]
- IC50 [9]: 150 nM

SMILES: CCCCCC(O)c1cccc(OCc2ccc3ccccc3n2)c1 (stereo unspecified) [REV-5901]
- Inhibition (Cavia porcellus [19]): 74%
- Ki (Cavia porcellus [20]): 700 nM

SMILES: CCc1cc(OCc2ccc3ccccc3n2)cc2c3c([nH]c12)C(CC)(CC(=O)O)OCC3 (stereo unspecified)
- Inhibition [21]: 47%
- Inhibition [1]: 91%

SMILES: CSc1ccccc1/C=C/C(=O)N(C)O
- IC50 [22]: 100 nM

SMILES: COc1ccc2cc([C@H](C)C(=O)O)ccc2c1 [NAPROXEN]
- Inhibition [23]: > 20 µM
- Inhibition (RBL-2H3 [24]): >10 µM
- Inhibition (RBL-2H3 [25]): >10 µM

SMILES: O=C(CCCCCCCCc1ccccc1)NO
- IC50 [22]: 6000 nM

SMILES: CCOC(=O)Oc1ccc(/C=C/C=C/C(=O)NCCN2CCC(OC(c3ccccc3)c3ccccc3)CC2)cc1OC [LINETASTINE]
- IC50 [26]: 320 nM

SMILES: CC(c1ccoc1)N(O)C(N)=O (stereo unspecified)
- IC50 [9]: 11000 nM

SMILES: c1ccc(Cc2nn[nH]n2)c(COc2ccc(OCc3ccc4ccccc4n3)cc2)c1 [RG-12525]
- ED50 [27]: 2.2 mg/kg
- Kb [28]: 2.7 nM
- Kb [29]: 2.7 nM
- Ki (Rattus norvegicus): 3 nM
- ED50 [30]: 5 mg/kg
- Kb [31]: 2.7 nM
